Reference: the NIST ThermoML archive (doi:10.1016/j.jct.2015.05.024)

Test: xn = mol fraction of the nth substance listed
Settings: 100 kPa, Liquid; for mass density: Vibrating tube method; for speed of sound: 288.15 K, Frequency=5 MHz, Pulse-echo method

OCCOCCOCCO [triethylene glycol] + O
mass density [kg/m3]
Settings | 278.15 K | 283.15 K
x1 = 0.0107 | 1013.31 | 1012.65
x1 = 0.02047 | 1024.39 | 1023.4
x1 = 0.03972 | 1043.4 | 1041.83
x1 = 0.04979 | 1051.97 | 1050.13
x1 = 0.06996 | 1066.64 | 1064.35
x1 = 0.09424 | 1080.57 | 1077.85
x1 = 0.1481 | 1100.99 | 1097.71
x1 = 0.2006 | 1112.25 | 1108.7
x1 = 0.2502 | 1118.67 | 1115
x1 = 0.2988 | 1122.73 | 1119.01
x1 = 0.3492 | 1125.61 | 1121.86
x1 = 0.3925 | 1127.4 | 1123.64
x1 = 0.4502 | 1129.18 | 1125.41
x1 = 0.4877 | 1130.08 | 1126.3
x1 = 0.5004 | 1130.35 | 1126.57
x1 = 0.5739 | 1131.64 | 1127.85
x1 = 0.58 | 1131.73 | 1127.94
x1 = 0.6465 | 1132.58 | 1128.79
x1 = 0.651 | 1132.63 | 1128.84
x1 = 0.7008 | 1133.14 | 1129.34
x1 = 0.7471 | 1133.54 | 1129.73
x1 = 0.7677 | 1133.7 | 1129.89
x1 = 0.82 | 1134.08 | 1130.26
x1 = 0.8623 | 1134.35 | 1130.52
x1 = 0.8792 | 1134.45 | 1130.62
x1 = 0.8975 | 1134.56 | 1130.73
x1 = 0.9203 | 1134.69 | 1130.86
x1 = 0.9514 | 1134.86 | 1131.03
x1 = 0.9692 | 1134.96 | 1131.12
x1 = 1 | 1135.14 | 1131.29

Settings | speed of sound [m/s]
x1 = 0.000601 | 1469.7
x1 = 0.001928 | 1476.6
x1 = 0.00461 | 1490.1
x1 = 0.008532 | 1508.9
x1 = 0.01366 | 1532
x1 = 0.01989 | 1557.7
x1 = 0.02548 | 1578.7
x1 = 0.03449 | 1609.1
x1 = 0.04517 | 1639.9
x1 = 0.05131 | 1655.2
x1 = 0.05713 | 1668.3
x1 = 0.06261 | 1679.5
x1 = 0.0692 | 1691.5
x1 = 0.07424 | 1699.8
x1 = 0.08016 | 1708.5
x1 = 0.08433 | 1714.1
x1 = 0.08832 | 1719
x1 = 0.09298 | 1724.2
x1 = 0.09657 | 1727.8
x1 = 0.1007 | 1731.7
x1 = 0.1021 | 1732.9
